IC50 data for 30 compounds are collected here from US10597380B2, “Pyridazinone-based broad spectrum anti-influenza inhibitors” (Hoffmann-La Roche Inc., priority 2017, dated 2020).

This assay concerns Influenza A/WSN/33-Luciferase virus. As to the kind of experiment: microbe, parasite or virus in culture. Format: cell-based. To be noted: A549, 72 h, luciferase signal three days later, read-out: IC50 antiviral activity (Luciferase reporter assay).

Take `Cn1cccc(Nc2nn(-c3ccc(OC(F)F)cc3)c(=O)c3c2CCCC3)c1=O` [Example 27, 2-[4-(difluoromethoxy)phenyl]-4-[(1-methyl-2-oxo-3-pyridyl)amino]-5,6,7,8-tetrahydrophthalazin-1-one]: the IC50 worked out at 41 nM.
The same measure for `Cn1cccc(Nc2nn(-c3ccc(OC(F)(F)F)cc3)c(=O)c3c2CCC3)c1=O` [Example 28, 1-[(1-methyl-2-oxo-3-pyridyl)amino]-3-[4-(trifluoromethoxy)phenyl]-6,7-dihydro-5H-cyclopenta[d]pyridazin-4-one]: 8 nM; for `Cc1cc(Nc2nn(-c3ccc(OC(F)(F)F)cc3)c(=O)c3c2CCC3)c(=O)n(C)n1` [Example 29, 1-[(2,6-dimethyl-3-oxo-pyridazin-4-yl)amino]-3-[4-(trifluoromethoxy)phenyl]-6,7-dihydro-5H-cyclopenta[d]pyridazin-4-one]: 22 nM.
For the compound `Cn1cncc(Nc2nn(-c3ccc(OC(F)(F)F)cc3)c(=O)c3c2CCC3)c1=O` [Example 30, 1-[(1-methyl-6-oxo-pyrimidin-5-yl)amino]-3-[4-(trifluoromethoxy)phenyl]-6,7-dihydro-5H-cyclopenta[d]pyridazin-4-one], the IC50 was found to be 37 nM.
Next, `Cn1cc(F)cc(Nc2nn(-c3ccc(OC(F)(F)F)cc3)c(=O)c3c2CCC3)c1=O` [Example 31, 1-[(5-fluoro-1-methyl-2-oxo-3-pyridyl)amino]-3-[4-(trifluoromethoxy)phenyl]-6,7-dihydro-5H-cyclopenta[d]pyridazin-4-one]: 8 nM.
The same measure for `Cc1cc(Nc2nn(-c3ccc(OC(F)(F)F)cc3)c(=O)c3c2CCC3)c(=O)n(C)c1` [Example 32, 1-[(1,5-dimethyl-2-oxo-3-pyridyl)amino]-3-[4-(trifluoromethoxy)phenyl]-6,7-dihydro-5H-cyclopenta[d]pyridazin-4-one]: 12 nM; for `Cn1cc(Cl)cc(Nc2nn(-c3ccc(OC(F)(F)F)cc3)c(=O)c3c2CCC3)c1=O` [Example 33, 1-[(5-chloro-1-methyl-2-oxo-3-pyridyl)amino]-3-[4-(trifluoromethoxy)phenyl]-6,7-dihydro-5H-cyclopenta[d]pyridazin-4-one]: 6 nM.
For the compound `Cn1cc(C(F)(F)F)cc(Nc2nn(-c3ccc(OC(F)(F)F)cc3)c(=O)c3c2CCC3)c1=O` [Example 34, 1-[[1-methyl-2-oxo-5-(trifluoromethyl)-3-pyridyl]amino]-3-[4-(trifluoromethoxy)phenyl]-6,7-dihydro-5H-cyclopenta[d]pyridazin-4-one], the IC50 is 195 nM.
`CCc1cc(Nc2nn(-c3ccc(OC(F)(F)F)cc3)c(=O)c3c2CCC3)c(=O)n(C)c1` [Example 35, 1-[(5-ethyl-1-methyl-2-oxo-3-pyridyl)amino]-3-[4-(trifluoromethoxy)phenyl]-6,7-dihydro-5H-cyclopenta[d]pyridazin-4-one]: the IC50 came out at 68 nM.
Take `CC(C)c1cc(Nc2nn(-c3ccc(OC(F)(F)F)cc3)c(=O)c3c2CCC3)c(=O)n(C)c1` [Example 36, 1-[(5-isopropyl-1-methyl-2-oxo-3-pyridyl)amino]-3-[4-(trifluoromethoxy)phenyl]-6,7-dihydro-5H-cyclopenta[d]pyridazin-4-one]: the IC50 is 579 nM.
For `COC(=O)CCCn1cc(Cl)cc(Nc2nn(-c3ccc(OC(F)(F)F)cc3)c(=O)c3c2CCC3)c1=O` [Example 37, methyl 4-[5-chloro-2-oxo-3-[[4-oxo-3-[4-(trifluoromethoxy)phenyl]-6,7-dihydro-5H-cyclopenta[d]pyridazin-1-yl]amino]-1-pyridyl]butanoate], the IC50 came to 20 nM.
For the compound `COC(=O)CCCn1cccc(Nc2nn(-c3ccc(OC(F)(F)F)cc3)c(=O)c3c2CCC3)c1=O` [Example 38, methyl 4-[2-oxo-3-[[4-oxo-3-[4-(trifluoromethoxy)phenyl]-6,7-dihydro-5H-cyclopenta[d]pyridazin-1-yl]amino]-1-pyridyl]butanoate], the IC50 is 23 nM.
With `CCOC(=O)COCCn1cccc(Nc2nn(-c3ccc(OC(F)(F)F)cc3)c(=O)c3c2CCC3)c1=O` [Example 39, ethyl 2-[2-[2-oxo-3-[[4-oxo-3-[4-(trifluoromethoxy)phenyl]-6,7-dihydro-5H-cyclopenta[d]pyridazin-1-yl]amino]-1-pyridyl]ethoxy]acetate], the IC50 came out at 230 nM.
The same measure for `O=c1c(Nc2nn(-c3ccc(OC(F)(F)F)cc3)c(=O)c3c2CCC3)cccn1CCn1ccnc1` [Example 40, 1-[[1-(2-imidazol-1-ylethyl)-2-oxo-3-pyridyl]amino]-3-[4-(trifluoromethoxy)phenyl]-6,7-dihydro-5H-cyclopenta[d]pyridazin-4-one]: 100 nM; for `CCOC(=O)C1CN(CCn2cccc(Nc3nn(-c4ccc(OC(F)(F)F)cc4)c(=O)c4c3CCC4)c2=O)CCO1` (stereo not drawn) [Example 41, ethyl 4-[2-[2-oxo-3-[[4-oxo-3-[4-(trifluoromethoxy)phenyl]-6,7-dihydro-5H-cyclopenta[d]pyridazin-1-yl]amino]-1-pyridyl]ethyl]morpholine-2-carboxylate]: 60 nM; for `COC1CCN(CCn2cccc(Nc3nn(-c4ccc(OC(F)(F)F)cc4)c(=O)c4c3CCC4)c2=O)C1` (stereo not drawn) [Example 42, 1-[[1-[2-(3-methoxypyrrolidin-1-yl)ethyl]-2-oxo-3-pyridyl]amino]-3-[4-(trifluoromethoxy)phenyl]-6,7-dihydro-5H-cyclopenta[d]pyridazin-4-one]: 40 nM.
Consider `CC(C)(C)OC(=O)N(CCn1cccc(Nc2nn(-c3ccc(OC(F)(F)F)cc3)c(=O)c3c2CCC3)c1=O)CC(=O)O` [Example 43, 2-[tert-butoxycarbonyl-[2-[2-oxo-3-[[4-oxo-3-[4-(trifluoromethoxy)phenyl]-6,7-dihydro-5H-cyclopenta[d]pyridazin-1-yl]amino]-1-pyridyl]ethyl]amino]acetic acid], for which the IC50 was found to be 84 nM.
Next, `O=c1c(Nc2nn(-c3ccc(OC(F)(F)F)cc3)c(=O)c3c2CCC3)cccn1CCCN1CCOCC1` [Example 44, 1-[[1-(3-morpholinopropyl)-2-oxo-3-pyridyl]amino]-3-[4-(trifluoromethoxy)phenyl]-6,7-dihydro-5H-cyclopenta[d]pyridazin-4-one]: 28 nM.
Consider `CC(C)(C)OC(=O)NCCn1cccc(Nc2nn(-c3ccc(OC(F)(F)F)cc3)c(=O)c3c2CCC3)c1=O` [Example 45, tert-butyl N-[2-[2-oxo-3-[[4-oxo-3-[4-(trifluoromethoxy)phenyl]-6,7-dihydro-5H-cyclopenta[d]pyridazin-1-yl]amino]-1-pyridyl]ethyl]carbamate], for which the IC50 is 286 nM.
Next, `O=c1c(Nc2nn(-c3ccc(OC(F)(F)F)cc3)c(=O)c3c2CCC3)cccn1CCN1CC(O)C1` [Example 46, 1-[[1-[2-(3-hydroxyazetidin-1-yl)ethyl]-2-oxo-3-pyridyl]amino]-3-[4-(trifluoromethoxy)phenyl]-6,7-dihydro-5H-cyclopenta[d]pyridazin-4-one]: 33 nM; `O=c1c(Nc2nn(-c3ccc(OC(F)(F)F)cc3)c(=O)c3c2CCC3)cncn1CCO` [Example 47, 1-[[1-(2-hydroxyethyl)-6-oxo-pyrimidin-5-yl]amino]-3-[4-(trifluoromethoxy)phenyl]-6,7-dihydro-5H-cyclopenta[d]pyridazin-4-one]: 71 nM; `CN1CCN(CCCn2cccc(Nc3nn(-c4ccc(OC(F)(F)F)cc4)c(=O)c4c3CCC4)c2=O)CC1` [Example 48, 1-[[1-[3-(4-methylpiperazin-1-yl)propyl]-2-oxo-3-pyridyl]amino]-3-[4-(trifluoromethoxy)phenyl]-6,7-dihydro-5H-cyclopenta[d]pyridazin-4-one]: 18 nM.
The same measure for `O=c1c(Nc2nn(-c3ccc(OC(F)(F)F)cc3)c(=O)c3c2CCC3)cccn1CCCO` [Example 49, 1-[[1-(3-hydroxypropyl)-2-oxo-3-pyridyl]amino]-3-[4-(trifluoromethoxy)phenyl]-6,7-dihydro-5H-cyclopenta[d]pyridazin-4-one]: 16 nM.
With `CN(C)CCn1cncc(Nc2nn(-c3ccc(OC(F)(F)F)cc3)c(=O)c3c2CCC3)c1=O` [Example 50, 1-[[1-[2-(dimethylamino)ethyl]-6-oxo-pyrimidin-5-yl]amino]-3-[4-(trifluoromethoxy)phenyl]-6,7-dihydro-5H-cyclopenta[d]pyridazin-4-one], the IC50 was 28 nM.
The same measure for `CCN(CC)CCn1cncc(Nc2nn(-c3ccc(OC(F)(F)F)cc3)c(=O)c3c2CCC3)c1=O` [Example 51, 1-[[1-[2-(diethylamino)ethyl]-6-oxo-pyrimidin-5-yl]amino]-3-[4-(trifluoromethoxy)phenyl]-6,7-dihydro-5H-cyclopenta[d]pyridazin-4-one]: 44 nM.
In the case of `O=c1c(Nc2nn(-c3ccc(OC(F)(F)F)cc3)c(=O)c3c2CCC3)cncn1CCN1CCCC1` [Example 52, 1-[[6-oxo-1-(2-pyrrolidin-1-ylethyl)pyrimidin-5-yl]amino]-3-[4-(trifluoromethoxy)phenyl]-6,7-dihydro-5H-cyclopenta[d]pyridazin-4-one], the IC50 amounted to 62 nM.
The same measure for `Cn1cccc(Nc2nn(-c3ccc(C(C)(C)C)cc3F)c(=O)c3c2CCC3)c1=O` [Example 53, 3-(4-tert-butyl-2-fluoro-phenyl)-1-[(1-methyl-2-oxo-3-pyridyl)amino]-6,7-dihydro-5H-cyclopenta[d]pyridazin-4-one]: 24 nM; for `Cn1cccc(Nc2nn(-c3ccc(C(F)(F)F)cc3F)c(=O)c3c2CCC3)c1=O` [Example 54, 3-[2-fluoro-4-(trifluoromethyl)phenyl]-1-[(1-methyl-2-oxo-3-pyridyl)amino]-6,7-dihydro-5H-cyclopenta[d]pyridazin-4-one]: 52 nM.
`CCOc1ccc(-n2nc(Nc3cccn(C)c3=O)c3c(c2=O)CCC3)cn1` [Example 55, 3-(6-ethoxy-3-pyridyl)-1-[(1-methyl-2-oxo-3-pyridyl)amino]-6,7-dihydro-5H-cyclopenta[d]pyridazin-4-one]: the IC50 is 303 nM.
The same measure for `COc1ccc(-n2nc(Nc3cccn(C)c3=O)c3c(c2=O)CCC3)cn1` [Example 56, 3-(6-methoxy-3-pyridyl)-1-[(1-methyl-2-oxo-3-pyridyl)amino]-6,7-dihydro-5H-cyclopenta[d]pyridazin-4-one]: 278 nM.
